What was measured:
[1] = tested on: mouse melanoma cells; assay: Subcutaneous mouse melanoma, treatment from palpable tumor, 33 mg/kg orally every day; format: in vivo, black mice; conditions: 33 mg/kg every day by oral intubation
Protocol: (§1) Thirty-seven black mice were divided into two groups. Group I had 18 mice and was the control group. Group II had 19 mice and was the treated group. Each mouse was innoculated with 100,000 mouse melanoma cells subcutaneously. After the tumor was palpable (after about a week) the control group received saline orally. The treated group got 33 mg/kg of 5,5-dimethyl-2-phenyl-4-thiazolidine carboxylic acid every day by oral intubation. All of the control group died within an average of twenty-three days. The treated group started dying at day 50. The last mouse of the treated group died on day 70. The treated group died from day 50 on at the rate of about one mouse per day. […] Two mice in the treated group survived cured. The tumor disappeared in the two cured mice.

[2] = Terol et al publication; cited from earlier work
[3] = Water solubility of free compound and copper chelates; format: physicochemical; conditions: stated in the description, no test described
[4] = tested on: mouse melanoma cells; format: in vivo, black mice
Protocol: as §1
The same experiment was repeated with 20 control mice and 20 mice in the treated group, employing doses of 5,5-dimethyl-2-phenyl-4-thiazolidine carboxylic acid at 100 mg/kg. The treatment began about one day after innoculation. The control group died at the same time as the control group in the previous experiment. […] Five of the treated mice died between the 7th and 9th day. The reasons for these deaths are unclear, but it is presumed that they were asphyxiated by intubation.

[5] = Terol et al publication; species and route not given; cited from earlier work
[6] = tested on: tumor; conditions: literature / other patent (Kochi et al.; U.S. Pat. No. 4,762,705); cited from earlier work

Compound	tumor development compared with control group [1]	day of death of last mouse of treated group ([1]; 19 treated mice) [days]	mice in treated group that survived cured (tumor disappeared) ([1]; 19 treated mice)	day on which treated group started dying ([1]; 19 treated mice, control died within an average of twenty-three days) [days]	effect as a radio-protectant agent [2]	water solubility [3]	palpable tumors developed in treated group ([4]; 100 mg/kg, treatment began about one day after inoculation, 20 treated mice)	day of death of the five treated mice ([4]; mouse, in vivo) [days]	treated mice that died between the 7th and 9th day ([4]; mouse, in vivo)	LD50 [5] [mg/kg]	anti-tumor activity [6]
CC1(C)SC(c2ccccc2)NC1C(=O)O (stereo not drawn) [5,5-dimethyl-2-phenyl-4-thiazolidine carboxylic acid]	developed slower than the tumors in the control group	70	Two	50	absolutely no effect whatsoever	water-soluble	no palpable tumors	7 to 9	Five	1200	–
O=Cc1ccccc1 [benzaldehyde]	–	–	–	–	–	–	–	–	–	–	has been shown to have anti-tumor activity
CC(C)(S)[C@@H](N)C(=O)O [penicillamine, dimethylcysteine]	–	–	–	–	–	–	–	–	–	–	has anti-tumor activity

Reference: US5169858A, “Anti-tumor compositions containing the reactive product of benzaldehyde or salicylaldehyde with penicillamine and method of use thereof” (priority 1986, dated 1992)
